From patent US3931199A, “Benzopyrano and benzothiopyrano [2,3-6] pyridines” (Yoshitomi Pharmaceutical Industries, Ltd., priority 1973, dated 1976) come the findings set out here.

For the experiment, the system named is Passive Cutaneous Anaphylaxis. Kind of experiment: Passive Cutaneous Anaphylaxis Test. The format is in vivo, Donryu-strain male rats. The note with it: Rattus norvegicus, dose required for 50% inhibition, rats sensitized with reagin serum, egg albumin challenge after 48 hours. As for the experimental part:
A test solution containing a test compound was administered orally 1 hour before, or intraperitoneally 30 minutes before challenge. The animals were killed 30 minutes after challenge, the skin reflected, and the responses measured and scored 0 for diameter of wheal less than 5 mm, 1 for 5-10 mm,[…] 3 for 15-20 mm and 4 for more than 20 mm. The percentage inhibition was calculated using the formula: [formula]

The mark [1] stands for this setting: ip, 0.5 h, i.p., 30 minutes before challenge, read-out: ED50 i.p.
[2] abbreviates: po, 1 hour before challenge, read-out: ED50 p.o.

Like-named read-outs stand apart in the source and are kept apart here.

Regarding `CC(C)C(=O)c1ccc2oc3ncccc3c(=O)c2c1` [B, 7isobutyryl-5-oxo-5H-[1]benzopyrano[2,3-b]pyridine], the ED50 (in general, the dose at which the effect has come halfway, by size or by number of responders) was 1 mg/kg under setting [1] and 25 to 50 mg/kg under setting [2].
On to `CC(=O)c1ccc2oc3ncccc3c(=O)c2c1` [A, 7-acetyl-5-oxo-5H-[1]benzopyrano[2,3-b]pyridine], for which the 50% effective dose (ED50) is, setting by setting: under setting [1], 1 mg/kg; under setting [2], 10 mg/kg.
The like results for `O=C([O-])c1ccc2oc3nc(-c4ccccc4)ccc3c(=O)c2c1.[Na+]` [D, sodium 2-phenyl-5-oxo-5H-[1]benzopyrano[2,3-b]pyridine-7-carboxylate] were, in that order, 1 mg/kg and 40 mg/kg.
For `O=C(O)c1ccc2oc3ncccc3c(=O)c2c1` [C, 5-oxo-5H-[1]benzopyrano[2,3-b]pyridine-7-carboxylic acid], in that order: 2 mg/kg and 25 mg/kg.
